Data published in ChEMBL document CHEMBL5120841, “Discovery of novel pleuromutilin derivatives as potent antibacterial agents” (2022).
In brackets after ≈: the same amount, converted by molar mass. Activity calls are given as the source filed them. The rule behind the calls is not given here.

Key:
[1] = test system: Staphylococcus epidermidis; assay: Antibacterial activity against methicillin-resistant Staphylococcus epidermidis ATCC 51625 assessed as bacterial growth inhibition incubated for 18 to 24 hrs by microtiter dilution method; type: functional; settings: time 18-24 hrs
Escherichia coli = assay: Antibacterial activity against Escherichia coli CICC 10389 assessed as bacterial growth inhibition incubated for 18 to 24 hrs by microtiter dilution method; type: functional; settings: time 18-24 hrs
Staphylococcus aureus [2] = assay: Antibacterial activity against Staphylococcus aureus ATCC 25923 assessed as bacterial growth inhibition incubated for 18 to 24 hrs by microtiter dilution method; type: functional; settings: time 18-24 hrs
Bacillus subtilis = assay: Antibacterial activity against Bacillus subtilis assessed as bacterial growth inhibition incubated for 18 to 24 hrs by microtiter dilution method; type: functional; settings: time 18-24 hrs
Enterococcus faecalis = assay: Antibacterial activity against Enterococcus faecalis assessed as bacterial growth inhibition incubated for 18 to 24 hrs by microtiter dilution method; type: functional; settings: time 18-24 hrs
Staphylococcus aureus [3] = assay: Antibacterial activity against methicillin-resistant Staphylococcus aureus BNCC 337371 assessed as bacterial growth inhibition incubated for 18 to 24 hrs by microtiter dilution method; type: functional; settings: time 18-24 hrs
Staphylococcus aureus [4] = assay: Antibacterial activity against methicillin-resistant Staphylococcus aureus BNCC 337371 infected in Kunming mouse lung assessed as reduction on alveolar diaphragm thickening at 15 mg/kg,ip measured after 7 days by hematoxylin and eosin staining based light microscopic analysis; type: functional, organism-based; settings: time 7.0 day
Staphylococcus aureus [5] = assay: Antibacterial activity against methicillin-resistant Staphylococcus aureus BNCC 337371 infected in Kunming mouse lung assessed as reduction on pulmonary fibrosis at 15 mg/kg,ip measured after 7 days by hematoxylin and eosin staining based light microscopic analysis; type: functional, organism-based; settings: time 7.0 day
Staphylococcus aureus [6] = assay: Antibacterial activity against methicillin-resistant Staphylococcus aureus BNCC 337371 infected in Kunming mouse lung assessed as reduction on alveolar diaphragm thickening at 40 mg/kg,ip measured after 7 days by hematoxylin and eosin staining based light microscopic analysis; type: functional, organism-based; settings: time 7.0 day
Staphylococcus aureus [7] = assay: Antibacterial activity against methicillin-resistant Staphylococcus aureus BNCC 337371 infected in Kunming mouse lung assessed as reduction on neutrophil infiltration at 15 mg/kg,ip measured after 7 days by hematoxylin and eosin staining based light microscopic analysis; type: functional, organism-based; settings: time 7.0 day
Staphylococcus aureus [8] = assay: Antibacterial activity against methicillin-resistant Staphylococcus aureus BNCC 337371 infected in Kunming mouse lung assessed as reduction on lymphocyte infiltration at 15 mg/kg,ip measured after 7 days by hematoxylin and eosin staining based light microscopic analysis; type: functional, organism-based; settings: time 7.0 day
Staphylococcus aureus [9] = assay: Antibacterial activity against methicillin-resistant Staphylococcus aureus BNCC 337371 infected in Kunming mouse lung assessed as reduction on neutrophil infiltration at 40 mg/kg,ip measured after 7 days by hematoxylin and eosin staining based light microscopic analysis; type: functional, organism-based; settings: time 7.0 day
Staphylococcus aureus [10] = assay: Antibacterial activity against methicillin-resistant Staphylococcus aureus BNCC 337371 infected in Kunming mouse assessed as reduction on bacterial growth by measuring survival rate at ip dosed measured after 7 days by Bliss method; type: functional; settings: BNCC 337371, 168 h, time 7 day
Staphylococcus aureus [11] = assay: Antibacterial activity against methicillin-resistant Staphylococcus aureus BNCC 337371 infected in Kunming mouse lung assessed as reduction on lymphocyte infiltration at 40 mg/kg,ip measured after 7 days by hematoxylin and eosin staining based light microscopic analysis; type: functional, organism-based; settings: time 7.0 day
Staphylococcus aureus [12] = assay: Antibacterial activity against methicillin-resistant Staphylococcus aureus BNCC 337371 infected in Kunming mouse lung assessed as reduction on bacterial growth at 40 mg/kg,ip dosed measured after 7 days by 10-fold dilution method; type: functional; settings: time 7 day
Staphylococcus aureus [13] = assay: Antibacterial activity against methicillin-resistant Staphylococcus aureus BNCC 337371 infected in Kunming mouse lung assessed as reduction on bacterial growth at 15 mg/kg,ip dosed measured after 7 days by 10-fold dilution method; type: functional; settings: time 7 day
Staphylococcus aureus [14] = assay: Antibacterial activity against Staphylococcus aureus ATCC 25923 assessed as reduction on bacterial count at 6X MIC incubated for 24 hrs by time killing assay; type: functional
Staphylococcus aureus [15] = assay: Antibacterial activity against methicillin-resistant Staphylococcus aureus BNCC 337371 assessed as reduction on bacterial count at 6X MIC incubated for 24 hrs by time killing assay; type: functional

Row | SMILES | MIC [1] | MIC (Escherichia coli) | MIC (Staphylococcus aureus [2]) | MIC (Bacillus subtilis) | MIC (Enterococcus faecalis) | MIC (Staphylococcus aureus [3]) | Activity (Staphylococcus aureus [4]) | Activity (Staphylococcus aureus [5]) | Activity (Staphylococcus aureus [6]) | Activity (Staphylococcus aureus [7]) | Activity (Staphylococcus aureus [8]) | Activity (Staphylococcus aureus [9]) | ED50 (Staphylococcus aureus [10]) | Activity (Staphylococcus aureus [11]) | Activity (Staphylococcus aureus [12]) | Activity (Staphylococcus aureus [13]) | Activity (Staphylococcus aureus [14]) | Activity (Staphylococcus aureus [15])
1 | C=C[C@]1(C)C[C@@H](OC(=O)CSC2=NC(CC)=C(C(=O)OC)C(C)N2)[C@]2(C)[C@H](C)CC[C@]3(CCC(=O)[C@H]32)[C@@H](C)[C@@H]1O (stereo partly drawn) | 0.125 µg/mL (≈ 0.217 µM) | > 16 µg/mL | 0.5 µg/mL (≈ 0.87 µM) | 8 µg/mL (≈ 13.9 µM) | > 16 µg/mL | 0.25 µg/mL (≈ 0.435 µM) |  |  |  |  |  |  |  |  |  |  |  | 
2 | C=C[C@]1(C)C[C@@H](OC(=O)CSC2=NC(C)=C(C(=O)OC(C)CC)C(C)N2)[C@]2(C)[C@H](C)CC[C@]3(CCC(=O)[C@H]32)[C@@H](C)[C@@H]1O (stereo partly drawn) | 1 µg/mL (≈ 1.66 µM) | > 16 µg/mL | 0.5 µg/mL (≈ 0.829 µM) | > 16 µg/mL | > 16 µg/mL | 0.5 µg/mL (≈ 0.829 µM) |  |  |  |  |  |  |  |  |  |  |  | 
3 | C=CCOC(=O)C1=C(C)N=C(SCC(=O)O[C@@H]2C[C@@](C)(C=C)[C@@H](O)[C@H](C)[C@]34CCC(=O)[C@H]3[C@@]2(C)[C@H](C)CC4)NC1C (stereo partly drawn) | 0.5 µg/mL (≈ 0.852 µM) | > 16 µg/mL | 0.25 µg/mL (≈ 0.426 µM) | > 16 µg/mL | > 16 µg/mL | 0.25 µg/mL (≈ 0.426 µM) |  |  |  |  |  |  |  |  |  |  |  | 
4 | C=C[C@]1(C)C[C@@H](OC(=O)CSC2=NC(C)=C(C(=O)OCC)C(C)N2)[C@]2(C)[C@H](C)CC[C@]3(CCC(=O)[C@H]32)[C@@H](C)[C@@H]1O (stereo partly drawn) | 0.0625 µg/mL (≈ 0.109 µM) | > 16 µg/mL | 0.0625 µg/mL (≈ 0.109 µM) | > 16 µg/mL | > 16 µg/mL | 0.125 µg/mL (≈ 0.217 µM) |  |  |  |  |  |  |  |  |  |  |  | 
5 | C=C[C@]1(C)C[C@@H](OC(=O)CSCCN(CC)CC)[C@]2(C)[C@H](C)CC[C@]3(CCC(=O)[C@H]32)[C@@H](C)[C@@H]1O.O=C(O)/C=C/C(=O)O [TIAMULIN FUMARATE] | 0.5 µg/mL | > 16 µg/mL | 0.5 µg/mL | > 16 µg/mL | > 16 µg/mL | 0.5 µg/mL | Active | Active | Active | Active | Active | Active | 22.9 mg/kg | Active | 2.56 log10CFU/ml | 1.68 log10CFU/ml |  | 
6 | C=C[C@]1(C)C[C@@H](OC(=O)CSc2nc(C)c(C(C)=O)c(C)n2)[C@]2(C)[C@H](C)CC[C@]3(CCC(=O)[C@H]32)[C@@H](C)[C@@H]1O | 0.0313 µg/mL (≈ 0.0577 µM) | > 16 µg/mL | ≤ 0.0156 µg/mL | 1 µg/mL (≈ 1.84 µM) | > 16 µg/mL | ≤ 0.0156 µg/mL |  |  |  |  |  |  |  |  |  |  | Active | Active
7 | C=C[C@]1(C)C[C@@H](OC(=O)CSc2nc(C)c(C(=O)OC)c(C(CC)CC)n2)[C@]2(C)[C@H](C)CC[C@]3(CCC(=O)[C@H]32)[C@@H](C)[C@@H]1O | 0.5 µg/mL (≈ 0.813 µM) | > 16 µg/mL | 0.25 µg/mL (≈ 0.407 µM) | > 16 µg/mL | > 16 µg/mL | 0.25 µg/mL (≈ 0.407 µM) |  |  |  |  |  |  |  |  |  |  |  | 
8 | C=C[C@]1(C)C[C@@H](OC(=O)CSC2=NC(CCCC)=C(C(=O)OC)C(C)N2)[C@]2(C)[C@H](C)CC[C@]3(CCC(=O)[C@H]32)[C@@H](C)[C@@H]1O (stereo partly drawn) | 1 µg/mL (≈ 1.66 µM) | > 16 µg/mL | 1 µg/mL (≈ 1.66 µM) | > 16 µg/mL | > 16 µg/mL | 1 µg/mL (≈ 1.66 µM) |  |  |  |  |  |  |  |  |  |  |  | 
9 | C=C[C@]1(C)C[C@@H](OC(=O)CSC2=NC(C(CC)CC)=C(C(=O)OC)C(C)N2)[C@]2(C)[C@H](C)CC[C@]3(CCC(=O)[C@H]32)[C@@H](C)[C@@H]1O (stereo partly drawn) | 0.25 µg/mL (≈ 0.405 µM) | > 16 µg/mL | 0.5 µg/mL (≈ 0.811 µM) | > 16 µg/mL | > 16 µg/mL | 0.25 µg/mL (≈ 0.405 µM) |  |  |  |  |  |  |  |  |  |  |  | 
10 | C=C[C@]1(C)C[C@@H](OC(=O)CSc2nc(C)c(C(=O)OC(C)CC)c(C)n2)[C@]2(C)[C@H](C)CC[C@]3(CCC(=O)[C@H]32)[C@@H](C)[C@@H]1O (stereo partly drawn) | 0.5 µg/mL (≈ 0.832 µM) | > 16 µg/mL | 0.5 µg/mL (≈ 0.832 µM) | > 16 µg/mL | > 16 µg/mL | 0.5 µg/mL (≈ 0.832 µM) |  |  |  |  |  |  |  |  |  |  |  | 
11 | C=CCOC(=O)c1c(C)nc(SCC(=O)O[C@@H]2C[C@@](C)(C=C)[C@@H](O)[C@H](C)[C@]34CCC(=O)[C@H]3[C@@]2(C)[C@H](C)CC4)nc1C | 0.25 µg/mL (≈ 0.428 µM) | > 16 µg/mL | 0.125 µg/mL (≈ 0.214 µM) | 4 µg/mL (≈ 6.84 µM) | > 16 µg/mL | 1 µg/mL (≈ 1.71 µM) |  |  |  |  |  |  |  |  |  |  |  | 
